# How the values were obtained:
# Type in all cases: functional
# MM1.S [1] = test: Induction of apoptosis in human MM1.S cells assessed as viable cells at 5 micromol/L incubated for 48 hrs by annexin V/PI staining based flow cytometry (reference value: 88.2%); conditions: dose 5 µmol/L, read-out: Activity
# MM1.S [2] = test: Induction of apoptosis in human MM1.S cells assessed as late apoptotic cells at 5 micromol/L incubated for 48 hrs by annexin V/PI staining based flow cytometry (reference value: 3.6%); conditions: dose 5 µmol/L, at 5 µM
# MM1.S [3] = test: Induction of apoptosis in human MM1.S cells assessed as necrotic cells at 5 micromol/L incubated for 48 hrs by annexin V/PI staining based flow cytometry (reference value: 0.17%); conditions: dose 5 µmol/L, at 5 µM
# MM1.S [4] = test: Induction of apoptosis in human MM1.S cells assessed as early apoptotic cells at 5 micromol/L incubated for 48 hrs by annexin V/PI staining based flow cytometry (reference value: 8.03%); conditions: dose 5 µmol/L, at 5 µM
structure (smiles),measurement,setting,value
CCCc1cc(C)[nH]c(=O)c1CNC(=O)c1cc(-c2ccc(N3CCN(C(C)C)CC3)nc2)cc2c1cnn2C(C)C,viability at 5 µM,MM1.S [1],64.9%
same,Activity,MM1.S [2],15.9%
same,Activity,MM1.S [3],0.41%
same,Activity,MM1.S [4],18.8%

# Source: ChEMBL document CHEMBL5647697, “Akt inhibition synergizes with polycomb repressive complex 2 inhibition in the treatment of multiple myeloma” (2019)
